Consider 87 molecules from PubChem BioAssay AID489006 (Sanford-Burnham Center for Chemical Genomics, 2010).

Each structure is given as a SMILES string. The source made the active and inactive calls. How the calls were made is not given here. A value given as a limit tells only on which side of the number the result lay.

This experiment deals with Jurkat NF-kB reporter, luminescence. Kind of experiment: Jurkat NF-kB signaling inhibitors – cell-based, luminescence, selectivity assay for B-cell receptor NF-kB inhibitor project, dose response (AID 489006).
As a reminder, the IC50 is the concentration that inhibits the measured activity by half. As for `Cc1nc2ccccn2c1C(=O)/C=C/c1cccc([N+](=O)[O-])c1`, the IC50 is 4.57 µM. To `COc1ccc(C(=O)Nc2nnc(Cc3cccs3)s2)cc1OC` belongs > 80 µM (inactive). The same measure for `O=C(CCCN1C(=O)S/C(=C/C=C/c2ccccc2)C1=O)Nc1ccc(C(=O)O)cc1`: > 80 µM (inactive); for `COc1ccc(NS(=O)(=O)c2cc(NC(=O)c3cc(=O)c4ccccc4o3)ccc2OC)cc1`: > 80 µM (inactive). The same measure for `CC(=O)c1cccc(S(=O)(=O)Nc2cc(C(F)(F)F)ccc2N2CCOCC2)c1`: 62.2 µM (inactive); for `Cc1ccc(Sc2cc(NCCCO)c([N+](=O)[O-])c3nonc23)cc1`: > 80 µM (inactive). Regarding `Cc1ccc(-c2cn(-c3ccccc3)c3[n+]2CCCS3)cc1`, the IC50 is > 80 µM (inactive). To `Cc1csc(NC(=O)/C=C/c2ccc3c(c2)OCO3)n1` belongs > 80 µM (inactive); to `COC(=O)C1=C(c2ccc(-c3ccccc3)c(F)c2)C[C@@H]2CC[C@H]1N2C(=O)N1CCCC1`, 35.8 µM (inactive). The same measure for `CN(C)c1cc[n+](Cc2c(Cl)cccc2Cl)cc1`: > 80 µM (inactive). For `CCOc1ccc(NC(=O)CCCc2cc(-c3ccc(OCC)cc3)on2)cc1`, the IC50 was > 80 µM (inactive). The same measure for `COc1cc(C(=O)Nc2cc(C)c(OCC(=O)N3CCOCC3)c(C)c2)cc(OC)c1OC`: > 80 µM (inactive). To `Cn1c(=O)cc(OCCCC(=O)NCc2ccccn2)c2ccccc21` belongs > 80 µM (inactive); to `CNC(=O)c1cccn(Cc2ccc(C(F)(F)F)cc2)c1=O`, 20.9 µM (inactive); to `O=C(CCCN1C(=O)/C(=C/c2ccccc2Cl)SC1=S)NNC(=O)c1ccc(Cl)cc1Cl`, 0.76 µM. Regarding `Cc1cc(-c2cc(C(=O)NCc3ccccc3)on2)nc(S(C)(=O)=O)n1`, the 50% inhibitory concentration (IC50) was 3.91 µM.

Turning to `Cc1nn(-c2ccc(N3CCCCC3)nn2)c(C)c1CCC(=O)Nc1ccccc1F`, the IC50 was 71.1 µM (inactive). As for `Cc1ccc(S(=O)(=O)Nc2ccc3c(c2)n(C)c(=O)n3C)cc1`, the IC50 was 73 µM (inactive). In the case of `CCSc1ncc(Cl)c(C(=O)Nc2sc3c(c2C(=O)NCc2cccnc2)CCCC3)n1`, the IC50 is > 80 µM (inactive). With `CCC(=O)N1c2ccccc2[C@@H](N(C(C)=O)c2ccccc2)C[C@H]1C`, the IC50 was 57 µM (inactive). Turning to `Cc1ccc2nc(NC(=O)CSCC(=O)OCC(=O)c3ccc(Br)cc3)sc2c1`, the half-inhibitory concentration (IC50) is 0.33 µM.

Turning to `Cn1nnnc1Sc1ncnc2scc(Br)c12`, the IC50 was 1.13 µM. `N=c1c2c(n(Cc3ccc(Cl)c(Cl)c3)c3c1CCC3)CCCC2`: the IC50 was 9.18 µM.

Take `Cc1nc2cc(-c3ccc(Cl)cc3)nn2c(C)c1CCC(=O)NCc1ccco1`: the concentration for half-maximal inhibition (IC50) is 0.34 µM. To `CCCN1C(=O)/C(=C/c2c(N3CCNC(=O)C3CC(=O)OCC)nc3c(C)cccn3c2=O)SC1=S` (configuration not stated) belongs 24.4 µM (inactive). The same measure for `CC1CCN(CCCNC(=O)COc2cc(=O)n(C)c3ccccc23)CC1`: > 80 µM (inactive); for `O=C(Oc1cccc(/C=N/Nc2nc(Nc3ccccc3)nc(N3CCOCC3)n2)c1)c1ccco1`: > 80 µM (inactive). On to `CCOc1ccc(/C=C2\SC(=S)N(CCCC(=O)NCCCN3CCOCC3)C2=O)cc1`, for which the IC50 was 0.52 µM.

Take `COc1ccc(/C=C2/SC(=S)N(CCC(=O)O)C2=O)cc1`: the concentration for half-maximal inhibition (IC50) was 0.4 µM. The same measure for `CCN1C(=O)Nc2cccc3cccc1c23`: 36.2 µM (inactive); for `COc1ccc(-n2ncc3c(N4CCC(C(N)=O)CC4)ncnc32)cc1`: > 80 µM (inactive).

As for `Cc1ccc(Nc2nc(N3CCOCC3)nc(N3CCOCC3)n2)cc1C`, the IC50 was > 80 µM (inactive). To `CN(C)CCCN=Cc1c(-c2ccccc2)[nH]n(-c2nc3ccccc3s2)c1=O` belongs 0.88 µM; to `CCCNC(=O)c1ccc(N2CCC3(CC2)CC(c2cccc(Br)c2)=NO3)c(NC(=O)c2ccc(Cl)c([N+](=O)[O-])c2)c1`, > 80 µM (inactive); to `CC(C)c1ccc(/C=C2\SC(=S)N(CCC(=O)N3CCCCC3CCO)C2=O)cc1` (configuration not stated), 0.33 µM. With `CCC(=O)N(C1=C(NC)C(=O)c2ccccc2C1=O)C(C)C`, the IC50 is 45.8 µM (inactive).

As for `CCOC(=O)C(=CNc1cc(C)ccc1C)C(=O)OCC`, the IC50 is > 80 µM (inactive).

On to `Cc1cc(C)cc(OCc2nnc(SCC(=O)c3ccccc3)o2)c1`, for which the IC50 is > 80 µM (inactive).

For `O=C(Nc1cccc(S(=O)(=O)Nc2ccc(Cl)cc2)c1)c1ccc(Cl)nc1`, the IC50 is 25.7 µM (inactive).

Regarding `Cn1c(=NC(=O)CCl)sc2ccccc21`, the IC50 is 1.18 µM. The same measure for `Cn1c(=O)n(C)c2cc(NS(=O)(=O)c3ccccc3)ccc21`: 51.8 µM (inactive); for `COc1ccc(-c2noc(N3CCC(C(=O)Nc4ccc(F)cc4F)CC3)n2)cc1`: > 80 µM (inactive); for `CCN1C(=O)c2cccc3c(S(=O)(=O)Nc4ccccc4)ccc1c23`: 48.9 µM (inactive).

Turning to `CCN(CC)S(=O)(=O)c1ccc(N2CCOCC2)c(NC(=O)c2[nH]c(C)c(C(C)=O)c2C)c1`, the IC50 is 47 µM (inactive).

As to `CCNc1nc(C)c2cc(Br)c(=O)n(CC)c2n1`, the half-maximal inhibitory concentration (IC50) was 7.89 µM. The same measure for `O=C(CCl)N1CCN(S(=O)(=O)c2ccc3c(c2)CCC3)CC1`: 2.16 µM; for `O=C(Nc1nc2nc(-c3ccccc3)cc(-c3ccccc3)n2n1)c1ccco1`: 12 µM. Regarding `CCC(CO)Oc1cc(NCc2ccccc2O)c2ncn(C(C)C)c2c1` (configuration not stated), the IC50 was > 80 µM (inactive).

With `CCC(CC)C(=O)Nc1ccc(Sc2ccc([N+](=O)[O-])cc2)cc1`, the IC50 was 6.83 µM. Take `Cc1ccc(/C=C2\SC(=S)N(CCCC(=O)Nc3ccccn3)C2=O)cc1`: the IC50 is 0.76 µM. For the molecule `Cc1ccc(C(=O)N2CCCC(c3ccc(Cl)cc3)=N2)cc1`, the IC50 is > 80 µM (inactive). Turning to `CC(C)(C)c1ccc(-c2noc(CCC(=O)NCc3ccco3)n2)cc1`, the IC50 is 1.13 µM.

On to `Nc1ccccc1SCC(=O)Nc1nc(-c2ccccc2)cs1`, for which the IC50 was > 80 µM (inactive). Take `CC1CC(C)CN(S(=O)(=O)c2ccc(C(=O)NCCCn3ccnc3)cc2)C1` (configuration not stated): the IC50 was 54.6 µM (inactive). For `CC1CCN(c2c(NCc3ccc(C(=O)N4c5ccccc5CC4C)cc3)c(=O)c2=O)CC1` (configuration not stated), the IC50 was > 80 µM (inactive).

As for `COc1ccc(OCc2cccc(C(=O)Nn3cc([N+](=O)[O-])cn3)c2)cc1`, the IC50 was 1.85 µM.

On to `COc1ccc(/C=C2\SC(=O)N(CCCC(=O)Nc3ccc(C(=O)O)cc3)C2=O)cc1OC`, for which the IC50 is 29.4 µM (inactive). The same measure for `C=C(C)[C@@H]1CCC2(C(=O)O)CC[C@]3(C)[C@H](CC[C@@H]4[C@@]5(C)CCC(=O)C(C)(C)[C@@H]5CC[C@]43C)[C@@H]12` (some centres not stated): > 80 µM (inactive); for `COc1ccc(/C=N/OCC(=O)NC(c2ccccc2)c2ccccc2)cc1OC`: > 80 µM (inactive).

Regarding `COc1ccc(-n2c(-c3ccc(Br)cc3)c[n+]3c2CCc2ccccc2-3)cc1`, the IC50 was 31.8 µM (inactive). As to `CC(C)(C)c1ccc(-c2cc(N)n[nH]2)cc1`, the IC50 was 6.02 µM.

Regarding `COc1ccc(-c2ccc(OC)c([C@H]3[C@H]4C=CC[C@@H](C)[C@@H]4C(=O)N3Cc3ccccc3)c2)cc1`, the IC50 was 35.7 µM (inactive). The same measure for `CC(C)(C)c1ccc(-c2noc(CCC(N)=O)n2)cc1`: below 0.16 µM; for `COc1ccc(C(=O)n2nc(-c3ccc(Cl)cc3)nc2N)cc1OC`: 2.9 µM. The same measure for `CCn1c(=O)cc(SCC(=O)N2CCN(C(=O)c3ccco3)CC2)c2ccccc21`: > 80 µM (inactive). To `CCC(C)(C)c1ccc(OCCCC[n+]2ccccc2)c(C(C)(C)CC)c1` belongs 5.79 µM; to `CC(=C/c1ccco1)/C=N/NC(=O)CSc1nnc(SCc2ccc(C)cc2)s1`, > 80 µM (inactive). On to `CCOC(=O)Cc1csc(NC(=S)NC(=O)c2ccc(C)cc2)n1`, for which the half-inhibitory concentration (IC50) is 0.72 µM. The same measure for `CC(C)OCCCNC(=O)c1c(N)n(/N=C/c2ccccn2)c2nc3ccccc3nc12`: 40.2 µM (inactive); for `CC(C)c1ccc(/C=C2\SC(=S)N(CCC(=O)NCCCn3ccnc3)C2=O)cc1`: 2.64 µM; for `c1ccc(CCNc2ncnc3ccccc23)cc1`: 64.2 µM (inactive). The same measure for `CCN1CCN(C(=O)CSc2cc(=O)n(CC)c3ccccc23)CC1`: > 80 µM (inactive); for `CCOC(=O)Cc1csc(NC(=S)NC(=O)c2ccc(Cl)cc2)n1`: 3.85 µM. To `Cc1ccc(/C=C2\SC(=S)N(CCCC(=O)Nc3cc(C)on3)C2=O)cc1` belongs 17.7 µM; to `CCOc1ccc(/C=C2\SC(=S)N(CCC(=O)Nc3ccc(C(=O)O)cc3)C2=O)cc1`, > 80 µM (inactive). For `CCOc1ccc(-c2cc(CCCC(=O)NCc3ccco3)no2)cc1`, the IC50 was > 80 µM (inactive).

As for `COc1ccc(/C=C2\SC(=S)N(CCC(=O)Nc3ccc(C(=O)O)cc3)C2=O)cc1OC`, the IC50 is > 80 µM (inactive). Regarding `CCn1c(=S)[nH]c2cc(S(=O)(=O)N3CCCCC3)ccc21`, the IC50 is > 80 µM (inactive).

Turning to `COc1ccc(NS(=O)(=O)c2ccc(-c3coc(C)n3)cc2)cc1OC`, the IC50 was > 80 µM (inactive). For `O=C(CCl)Nc1ccccc1Sc1ccccc1`, the IC50 was 14.1 µM.

For the molecule `Fc1ccc(C2=Nn3c(nnc3-c3n[nH]c4c3CCC4)SC2)cc1`, the IC50 was > 80 µM (inactive). On to `CCOC(=O)N1CCN(CC(=O)Nc2ccc([N+](=O)[O-])cc2C(=O)Nc2ccccc2F)CC1`, for which the IC50 was 33.1 µM (inactive). To `COc1ccc(S(=O)(=O)Nc2cc3c(C(C)=O)c(C)oc3c3ccccc23)cc1` belongs > 80 µM (inactive); to `CCOc1ccc(-c2cc(CCCC(=O)NCc3ccc(C)cc3)no2)cc1`, 6.59 µM.

In the case of `CCC(=O)N1c2ccccc2C(N(C(C)=O)c2ccccc2)CC1C` (configuration not stated), the IC50 was > 80 µM (inactive).

Take `Cc1[nH]c2ccccc2c1/C=N/Nc1nc(Nc2ccc(F)cc2)nc(N2CCOCC2)n1`: the IC50 was 20.9 µM (inactive). Consider `Cc1ccc(C)c(-n2nnnc2Sc2nnnn2-c2ccccc2)c1`, for which the IC50 was 1.42 µM.
